From patent US12285433B2, “Diltiazem for use in the treatment of microbial infections” (UNIVERSITE CLAUDE BERNARD LYON 1, priority 2018, dated 2025) come the findings set out here.

The subject of experiment [1] is respiratory syncytial virus (Long strain, ATCC VR-26). The experiment is described as follows: RSV replication in infected reconstituted human respiratory epithelia (RT-qPCR, F gene). The format is cell-based. The settings on record: MOI 1; 90 μM basolateral, 4 administrations from 5 hpi; 6 days post-infection. As for the experimental part:
Reconstituted human respiratory epithelia (MucilAir® HAE, Epithelix) were maintained in culture at the air-liquid interface according to the instructions of the supplier Epithelix and were infected with respiratory syncytial virus (Long strain, ATCC VR-26) at a multiplicity of infection (MOI) 1, then treated or not with diltiazem (90 μM) via their culture medium at their basolateral pole. Diltiazem treatment was performed at 5 hours post-infection and then repeated for 3 consecutive days (4 administrations in total).
At 6 days post-infection, samples at the apical pole of treated and untreated infected epithelia, as well as the epithelia themselves, were lysed with 150 μL of RLT buffer (Qiagen). The process of the experiment is schematically represented in FIG. 4A.
Total RNA was extracted using the RNeasy Kit (Qiagen), according to the supplier's instructions, for quantification of viral genome copy number (F gene) by RT-qPCR at the apical pole, i.e. in the supernatant (FIG. 4B), as well as in the epithelia (FIG. 4C).

The subject of experiment [2] is interferon lambda 1 (IL-29). The experiment can be described thus: ELISA measurement of interferon lambda 1 (IL-29) secretion by reconstituted human respiratory epithelia. In kind it is cell-based. The settings on record: ELISA after 72 h; 90 μM via basolateral pole, 3 administrations. The procedure:
Reconstituted human respiratory epithelia (MucilAir® HAE, Epithelix) were maintained in culture at the air-liquid interface according to the instructions of the supplier Epithelix and were treated or not with diltiazem (90 μM) via their culture medium at their basolateral pole. The diltiazem treatment was repeated for 3 consecutive days (3 administrations in total).
Secretion levels (pg/mL) of interferon lambda 1 (IL-29) at the apical and basolateral poles of human respiratory epithelia treated and untreated with diltiazem were measured by ELISA after 72 h of treatment according to the supplier's instructions (#3570-1H, Mabtech, Stockholm, Sweden).

Experiment [3] relates to human parainfluenza virus type 3 (strain C243 ATCC VR-93). The experiment is described as follows: hPIV-3 replication in reconstituted human respiratory epithelia (cytopathic effect, TEER, TCID50 titration in LLC-MK2 cells). Particulars: MOI 0.1, 90 μM basolateral daily. In kind it is cell-based. The procedure: Reconstituted human respiratory epithelia were infected with human parainfluenza virus type 3 (strain C243 ATCC VR-93) at an MOI of 0.1, and treatment of the basolateral medium with 90 μM diltiazem was started 2 hours post-infection and continued daily for 4 consecutive days. Transepithelial electrical resistance (TEER), which reflects the integrity of the epithelium, was measured once daily from 48 h post-infection to 120 hours post-infection.
Apical infectious viral titers (TCID50/mL) were determined in LLC-MK2 cells from washings collected starting 48 h post-infection (hpi), and up to 120 hpi, as shown in FIG. 5A.

Experiment [4] relates to IFIT1, IFIT2, IFIT3, IF127, IFN-λ1, IFN-λ2, IF144L and IFITM1 genes. The experiment can be described thus: RT-qPCR confirmation of induction of 8 genes associated with the type III interferon response. Particulars: 90 μM via basolateral pole, 3 days. The format is cell-based, human.
The subject of experiment [5] is respiratory syncytial virus (RSV). The experiment can be described thus: RSV challenge infection in BALB/c mouse model, pulmonary viral titers by RT-qPCR (F gene). In kind it is in vivo. The settings on record: BALB/c mice, 5×10^5 PFU RSV intranasally; 50 mg/kg per os, 5 treatments; day 5 post-infection. The procedure:
FIG. 4D schematically represents the chronology of infection and treatment of the mice: • BALB/c mice were randomized into 3 groups of 5 individuals and then infected intranasally with 50 μL of a viral suspension containing 5×10^5 PFU of RSV (Day 0). Six hours before infection, the mice were treated with either 40 mg/kg intraperitoneal ribavirin (RSV RIB) or 50 mg/kg diltiazem peros (RSV DIL), or PBS (RSV PBS) as negative control. • The same treatments were repeated every 24 h, with a total of 3 treatments for ribavirin and 5 treatments for diltiazem or PBS. • On day 5 post-infection (D5, corresponding to the peak of viral replication), the mice in each group were euthanized and their lungs were aseptically recovered to measure their pulmonary viral titers by RTqPCR (F gene).
RT-qPCR quantification of the RSV viral genome copy number (quantifying the copies of the F gene) relative to the total amount of RNA extracted from the lungs at 5 days post-infection was performed, and the results are presented in FIG. 4E.
The following statistical tests were used: One-way ANOVA with Bonferroni post-test to compare each virus to the mock condition (PBS treatment). *p<0.05.

In experiment [6] the test system is recombinant hMPV-GFP virus (strain C-85473). The experiment is described as follows: hMPV replication in reconstituted human respiratory epithelia (GFP epifluorescence, RT-qPCR of N gene). The format is cell-based, human metapneumovirus. The settings on record: MOI 0.1. As for the experimental part: Viral replication in reconstituted human epithelial models (MucilAir® HAE, Epithelix) of nasal origin was studied on epithelia treated or not treated with diltiazem. To that end, (i) fluorescence light microscopy photos were used to evaluate the efficacy and progression of the infection and (ii) quantification of the viral genome by RTqPCR was performed, on the one hand at the apical pole of the epithelium (surface harvesting) to quantify the excretion of viral progeny, and on the other hand in the total lysates of epithelial cells at end point (day 5 post-infection) to quantify intracellular viral replication within the epithelium.
Human respiratory epithelia (Mucilair, Epithelix) were infected with a recombinant hMPV-GFP virus (strain C-85473) at an MOI of 0.1, then treated (via the basolateral medium of the epithelia) or not with 3 successive doses of diltiazem at 90 μM at D0, D1 and D3 post-infection (3 epithelia per condition).
Epifluorescence microscopy observations were performed on D4 post-infection to observe the impact of diltiazem treatment on viral replication (FIG. 7B).
On day 3 post-infection, a wash at the apical pole of the infected epithelium, treated or not, was performed in order to harvest the viral progeny produced. The genomic viral RNA was extracted and quantified by RT-qPCR (Biosystems™ PowerUp™ SYBR™ Green, Thermo Fisher Scientific) using a plasmid containing the HMPV N gene. The results are expressed in copies of the N gene/μg RNA extracted (FIG. 7C).
On day 5 post-infection, epithelial cells were harvested and lysed to extract total RNA. Total RNAs corresponding to the hMPV N viral gene were quantified by Rt-qPCR (Biosystems™ PowerUp™ SYBR™ Green, Thermo Fisher Scientific), using a range made from a plasmid containing the HMPV N gene. The results are expressed in copies of the N gene/μg RNA extracted (FIG. 7D).

Experiment [7] has as its system genes encoding the type III interferons IFN-λ1, IFN-λ2 and IFN-λ3. The experiment is described as follows: RNAseq expression of type III interferon genes and response genes, basolateral treatment of reconstituted human respiratory epithelia (MucilAir HAE). The format is cell-based. The settings on record: 90 μM via basolateral pole, 3 days (3 administrations). As for the experimental part: Reconstituted human respiratory epithelia (MucilAir® HAE, Epithelix) maintained in culture at the air-liquid interface according to the instructions of the supplier Epithelix, were treated or not with diltiazem (90 μM) via their culture medium at their basolateral pole. The diltiazem treatment was repeated for 3 consecutive days (3 administrations in total).
Treated and untreated epithelia were then lysed with 150 μL of RLT buffer (Qiagen). […] Each library was amplified, quantified and indexed with primers provided in the ScriptSeq™ Index PCR Primers Kit (RSBC10948, Epicentre) and sequenced. Sequencing was conducted on an Illumina HiSeq 2500 system with a minimum requirement of 40 million “reads” sequenced per sample.
The demultiplexing of the data and the conversion of the BCL files resulting from the sequencing into FASTQ files were carried out using Illumina's bcl2fastq tool, in its version 1.8.4. […] A pseudo-alignment of the trimmed reads on the human genome (Homo Sapiens: GRCh38.p11) using the Kallisto software was performed, followed by a statistical analysis using the R 3.3.1 software and the EdgeR 3.14.0 package.
The differential in gene expression between epithelial cells treated with diltiazem and control epithelial cells was calculated using a linear model with a p-value correction by the Benjamini-Hochberg method. […]

In a further experiment the test system is IFN-λ2 (IFNL2) gene. The experiment is described as follows: In vivo induction of IFN-λ2 (IFNL2) gene expression after intranasal instillation in BALB/c mice (RT-qPCR). The settings on record: 20 mg/kg intranasal, D0/D1/D2 or D0/D2/D4, sampled D5.

Molecules are shown by their SMILES.

For `COc1ccc([C@@H]2Sc3ccccc3N(CCN(C)C)C(=O)[C@@H]2OC(C)=O)cc1` [diltiazem], in experiment [1], the “amount of RSV viral genome (F gene) in the culture supernatant (apical pole) compared with untreated epithelia” value is recorded as “much lower” and the “amount of RSV viral genome (F gene) in the epithelium compared with untreated epithelia” value was “much lower”. In experiment [2], the “IFN-λ1 (IL-29) secretion at the apical pole” value was “very sharply increased” and the “IFN-λ1 (IL-29) secretion at the basolateral pole” value is given as “significant, but less marked, increase”. For the same compound, the “transepithelial electrical resistance (TEER), integrity of the epithelium” value in experiment [3] (48 to 120 hpi) was “integrity appears to be more preserved”. The “cytopathic effects induced by hPIV-3 (microscopy)” value in experiment [3] (96 and 120 hpi) was “greater and easily visible microscopically in untreated reconstituted human respiratory epithelia, unlike those treated with diltiazem”. In experiment [3] (untreated 10^7), the “infectious viral titer at the apical surface at 96 h post-infection” value is on record as 10^5 TCID50/mL. Also, the “expression of the IFIT1, IFIT2, IFIT3, IF127, IFN-λ1, IFN-λ2, IF144L and IFITM1 genes compared with untreated epithelia” value in experiment [4] is on record as “significant increase”. Further, the “pulmonary viral titers (RSV F gene copies, RT-qPCR) compared with PBS control group and ribavirin-treated group” value in experiment [5] was “significantly reduced pulmonary viral titers”. Besides, the “fluorescence corresponding to viral expression of GFP (epifluorescence microscopy)” value in experiment [6] (90 μM basolateral at D0, D1, D3, D4 post-infection) is given as “very few fluorescent cells”. Also, the “reduction of viral genome (N gene) in epithelia (total lysate) versus untreated epithelia” value in experiment [6] (90 μM basolateral at D0, D1, D3, day 5 post-infection) is reported as 4 log 10. For the same compound, the “reduction of viral genome (N gene) in apical supernatants versus untreated epithelia” value in experiment [6] (90 μM basolateral, day 3 post-infection) amounted to 2 log 10. In experiment [7], the “expression of type III interferon response genes (IF144L, IFIT1, IFIT2, IFIT3, IFITM1, ISG15, MX1, MX2, OAS1, OAS2, OAS3, OASL, RSAD2, STAT1)” value was “significantly stimulates the expression”. Besides, the “IFN-λ2 (IFNL2) gene expression in nasal cavities relative to mock-treated mice” value with IFN-λ2 (IFNL2) gene is listed as “activates the IFN III pathway”.
